The values below come from patent US12679807B2 (MERCK SHARP & DOHME LLC, priority 2020, dated 2026).

The target of the assay is T1, GCS enzyme contained within Golgi preparations isolated from human A375 malignant melanoma skin cells (Homo sapiens, UniProt Q16739).
T1 construct: endogenous levels of GCS enzyme contained within Golgi preparations isolated from human A375 malignant melanoma skin cells; endogenous in cells; host or cells: A375 human malignant melanoma cells (crude Golgi preparation)
T1 sequence (Q16739 1-394): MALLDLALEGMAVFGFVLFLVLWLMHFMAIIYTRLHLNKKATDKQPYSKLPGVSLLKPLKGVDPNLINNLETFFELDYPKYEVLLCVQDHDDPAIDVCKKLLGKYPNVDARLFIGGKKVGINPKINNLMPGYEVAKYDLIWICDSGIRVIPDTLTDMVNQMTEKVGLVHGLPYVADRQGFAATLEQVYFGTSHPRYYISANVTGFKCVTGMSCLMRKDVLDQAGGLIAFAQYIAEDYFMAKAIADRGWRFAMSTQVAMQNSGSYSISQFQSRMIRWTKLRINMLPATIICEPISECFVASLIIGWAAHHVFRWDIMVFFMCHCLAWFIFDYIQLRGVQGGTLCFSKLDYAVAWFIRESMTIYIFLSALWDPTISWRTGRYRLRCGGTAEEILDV
The assay is described as follows: UDP-Glo glucosylceramide synthase biochemical assay. The following applies: crude Golgi preparation from A375 cells; C6 ceramide and UDP-glucose substrates; 20 h incubation at room temperature; UDP detected by luminescence. The gist of the method: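 Endogenous enzyme in A375 Golgi preparations (1.5 μg total protein) was preincubated 30 min with compound, then reacted 20 h at room temperature with UDP-glucose and ceramide.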

In general, EC50 refers to the midpoint of the concentration-response curve. High values mean a less potent agent, low ones a more potent agent. For `Cc1ccc(-c2ccc(-c3cccc4c3C(=O)N(C(C3CC3)C(C)(C)O)C4)cc2)nn1` (racemic) [Compound 18, (R and S)-2-(1-cyclopropyl-2-hydroxy-2-methylpropyl)-7-(4-(6-methylpyridazin-3-yl)phenyl)isoindolin-1-one], the EC50 was 45 nM. `COc1cc(C#N)cc(-c2nccc3c2C(=O)N(C(C2CC2)C(C)(C)O)C3)c1` (single isomer, unassigned) [Compound 30, (R or S)-3-(2-(1-cyclopropyl-2-hydroxy-2-methylpropyl)-3-oxo-2,3-dihydro-1H-pyrrolo[3,4-c]pyridin-4-yl)-5-methoxybenzonitrile] had an EC50 of 95 nM. Under `CC(C)(O)C(C1CC1)N1Cc2cccc(/C=C/c3ccnc4c3CCC4)c2C1=O` (single isomer, unassigned) [Compound 171, (R or S)-(E)-2-(1-Cyclopropyl-2-hydroxy-2-methylpropyl)-7-(2-(6,7-dihydro-5H-cyclopenta[b]pyridin-4-yl)vinyl)isoindolin-1-one] stands 230 nM; under `Cc1nn(C)c2ccc(-c3ccc(F)c4c3C(=O)N([C@H](C3CC3)C(C)(C)O)C4)cc12` [Compound 56, (R)-2-(1-cyclopropyl-2-hydroxy-2-methylpropyl)-7-(1,3-dimethyl-1H-indazol-5-yl)-4-fluoroisoindolin-1-one], 0.43 nM; under `COCC(C1CC1)N1Cc2cccc(NC(=O)c3ccnc4c3CCC4)c2C1=O` (single isomer, unassigned) [Compound 136, (R or S)-N-(2-(1-cyclopropyl-2-methoxyethyl)-3-oxoisoindolin-4-yl)-6,7-dihydro-5H-cyclopenta[b]pyridine-4-carboxamide], 80 nM.

`Cc1cccc(C(=O)Nc2cccc3c2C(=O)N(C(C2CC2)C(C)(C)O)C3)c1Cl` (single isomer, unassigned) [Compound 113, (R or S)-2-chloro-N-(2-(1-cyclopropyl-2-hydroxy-2-methylpropyl)-3-oxoisoindolin-4-yl)-3-methylbenzamide] gave an EC50 of 1.2 nM.

Consider `CC[C@@H](N1Cc2cccc(-c3ccc(-c4nnc(C)o4)cc3)c2C1=O)C(C)(C)O` [Compound 48, 2-[(1R)-1-ethyl-2-hydroxy-2-methyl-propyl]-7-[4-(5-methyl-1,3,4-oxadiazol-2-yl)phenyl]isoindolin-1-one], for which the EC50 turned out to be 81 nM. As for `O=C(Nc1cccc2c1C(=O)N(CC1CC1)C2)c1c(C(F)(F)F)cnc2ccccc12` [Compound 130, N-(2-(cyclopropylmethyl)-3-oxoisoindolin-4-yl)-3-(trifluoromethyl)quinoline-4-carboxamide], the EC50 turned out to be 40 nM. Regarding `CC(C)(O)C(C1CC1)N1Cc2nccc(NC(=O)c3ccnc4c3CCC4)c2C1=O` (single isomer, unassigned) [Compound 152, (R or S)-N-(6-(1-cyclopropyl-2-hydroxy-2-methylpropyl)-5-oxo-6,7-dihydro-5H-pyrrolo [3,4-b]pyridin-4-yl)-6,7-dihydro-5H-cyclopenta[b]pyridine-4-carboxamide], the EC50 is 96 nM.

In the case of `Cn1ccc2c(C(=O)Nc3cccc4c3C(=O)N(C(C3CC3)C3CC3)C4)cccc21` [Compound 126, N-(2-(dicyclopropylmethyl)-3-oxoisoindolin-4-yl)-1-methyl-1H-indole-4-carboxamide], the midpoint of the response, the EC50, lay at 35 nM. `Cc1nnc(-c2ccc(-c3ccnc4c3C(=O)N(C(C3CC3)C(C)(C)O)C4)cc2)o1` (single isomer, unassigned) [Compound 33, (R or S)-6-(1-cyclopropyl-2-hydroxy-2-methylpropyl)-4-(4-(5-methyl-1,3,4-oxadiazol-2-yl)phenyl)-6,7-dihydro-5H-pyrrolo[3,4-b]pyridin-5-one]: the EC50 was determined as 350 nM. Turning to `Cc1cc2c(cnn2C)cc1-c1cccc2c1C(=O)N([C@H](C1CC1)C(C)(C)O)C2` [Compound 87, (R)-2-(1-cyclopropyl-2-hydroxy-2-methylpropyl)-7-(1,6-dimethyl-1H-indazol-5-yl)isoindolin-1-one], the response was half-maximal at 9.5 nM (EC50).
